Read-outs that look alike come from different tables or passages of the source.
Key:
T7 DNA polymerase = T7 DNA polymerase (Escherichia phage T7, UniProt P00581); conditions: '(for ddATP)' stands at the end of the sentence, cited from earlier work
[1] = target: T1, T7 DNA polymerase (28 amino acid deletion in the exonuclease domain, complexed with thioredoxin) (Escherichia phage T7, UniProt P00581, DEL118-145); assay: Inhibition of DNA synthesis on synthetic Primer-Template A, competition of dATP and ddATP (Example 9); format: biochemical, bacteriophage T7; conditions: in the presence of 10 µM dATP, 37°C, read-out: [ddATP] for 50% inhibition
T1 construct: made in house; host or cells: strain that produces E. coli thioredoxin (lac promoter)
Experimental: (§1) In this example the competition between a dNTP and a ddNTP is assayed for use at a single site in a synthetic primer-template. This assay differs from the others in that it limits the comparison of the use of the two substrates to a single site, avoiding the complication of sequence-specific variability in discrimination. […]
(§2) Each reaction mixture contains 25 pmoles each of primer and template. […] The mixtures are incubated at 37°C for 1 min (70°C for thermophilic DNA polymerases), and the reactions are initiated by the addition of 5 µl aliquots (0.01 to 1 unit) of the DNA polymerase being analyzed diluted in 20 mM TrisHCl, pH 7.5, 10 mM 2-mercaptoethanol and 0.05% bovine serum albumin. […] The disks are then dried under a heat lamp and counted in a scintillation counter in 5 ml of fluor (Opti-Fluor O, Packard). From the amount of radioactivity on each disk, the amount […] incorporated was determined. […]
(§3) All reactions are carried out with a constant amount of the DNA polymerase being analyzed; the amount of DNA polymerase should be sufficient to replicate 50% of the total dCMP residues in the single-stranded region of the template in the 10 min incubation in the presence of 10 µM dATP and the absence of ddATP. […]

T7 DNA polymerase Y526F = target: T2, T7 DNA polymerase Y526F (Escherichia phage T7, UniProt P00581, DEL118-145/Y526F); assay: as above; format: biochemical, bacteriophage T7; conditions: in the presence of 10 µM dATP, 37°C, read-out: [ddATP] for 50% inhibition
T2 construct: made in house; host or cells: strain that produces E. coli thioredoxin (lac promoter)
Experimental: as §1, §2, §3

## Nc1ncnc2c1ncn2[C@H]1CC[C@@H](COP(=O)(O)OP(=O)(O)OP(=O)(O)O)O1 [ddATP]
T7 DNA polymerase; in the presence of manganese
  discrimination: 1
T7 DNA polymerase; magnesium
  discrimination: 3.7
[1]
  IC50: ~30 µM
T7 DNA polymerase Y526F
  IC50: > 500 µM
